We go through one compound from PMC5142810, “Structure of protein O-mannose kinase reveals a unique active site architecture” (eLife, 2016).

pKd: −log10 of the molar value.

For one test, the target named is T1, DrPOMK (Danio rerio, UniProt Q5U3W1).
T1 construct: gene pomk; lumenal kinase domain, residues 49-347, secreted from Hi5 insect cells (baculovirus); N-terminal 6xHis-MBP removed by TEV for crystallization
In words: 1H NMR titration, Man H1 peak intensity. It is filed as binding. Particulars: read-out: dissociation constant.

Another test deals with T2, CoPOMK (Capsaspora owczarzaki, UniProt A0A0D2WXW5).
T2 construct: gene CAOG_008172; residues 112-610, 6xHis-MBP fusion (psMBP2), secreted from Hi5 insect cells (baculovirus)
T2 sequence (A0A0D2WXW5 112-610): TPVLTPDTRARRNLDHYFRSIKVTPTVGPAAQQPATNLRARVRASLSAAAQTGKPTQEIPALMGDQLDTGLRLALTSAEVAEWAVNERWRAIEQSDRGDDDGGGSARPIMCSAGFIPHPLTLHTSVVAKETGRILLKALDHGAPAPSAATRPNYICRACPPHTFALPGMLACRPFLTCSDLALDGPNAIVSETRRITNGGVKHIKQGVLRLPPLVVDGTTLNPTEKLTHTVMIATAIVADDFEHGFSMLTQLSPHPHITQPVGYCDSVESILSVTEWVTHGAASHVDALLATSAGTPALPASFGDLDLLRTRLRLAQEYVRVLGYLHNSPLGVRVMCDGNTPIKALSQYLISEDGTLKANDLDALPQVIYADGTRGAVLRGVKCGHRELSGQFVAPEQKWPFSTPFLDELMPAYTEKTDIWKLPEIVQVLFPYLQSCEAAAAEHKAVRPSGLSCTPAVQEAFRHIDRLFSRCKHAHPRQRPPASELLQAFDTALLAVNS
In words: radiometric kinase assay, […] incorporation, C18 cartridge. Format: biochemical. Conditions: 20 μM GGM-MU, 100 μM ATP, 10 mM MnCl2, 50 mM HEPES pH 7.5, 20 °C, 30 min.

The target of another test is T3, HsPOMK (Homo sapiens, UniProt Q9H5K3).
T3 construct: gene POMK; lumenal kinase domain, residues 49-350, 6xHis-MBP fusion kept, secreted from Hi5 insect cells (baculovirus)
The description is as above. Format: biochemical. Conditions: 20 μM GGM-MU, 100 μM ATP, 10 mM MnCl2, 50 mM HEPES pH 7.5, 20 °C, 30 min.

T1 sequence (Q5U3W1 49-347): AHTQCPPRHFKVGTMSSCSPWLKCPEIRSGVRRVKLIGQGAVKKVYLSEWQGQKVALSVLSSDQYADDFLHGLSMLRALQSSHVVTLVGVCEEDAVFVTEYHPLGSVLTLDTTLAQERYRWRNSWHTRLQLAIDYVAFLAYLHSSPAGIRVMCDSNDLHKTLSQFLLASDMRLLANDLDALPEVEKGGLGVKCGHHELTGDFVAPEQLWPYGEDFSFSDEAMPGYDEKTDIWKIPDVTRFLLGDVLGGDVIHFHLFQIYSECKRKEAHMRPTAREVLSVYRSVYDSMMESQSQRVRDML
T3 sequence (Q9H5K3 49-350): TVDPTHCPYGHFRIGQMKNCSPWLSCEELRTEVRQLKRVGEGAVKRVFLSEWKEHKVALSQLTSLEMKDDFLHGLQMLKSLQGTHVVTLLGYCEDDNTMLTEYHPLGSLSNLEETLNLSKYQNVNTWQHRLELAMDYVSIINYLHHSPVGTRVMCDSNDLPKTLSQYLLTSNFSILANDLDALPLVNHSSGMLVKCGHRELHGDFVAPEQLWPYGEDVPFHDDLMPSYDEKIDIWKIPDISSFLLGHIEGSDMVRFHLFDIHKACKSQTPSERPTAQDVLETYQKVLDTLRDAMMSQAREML

In the case of `CC(=O)N[C@H]1[C@H](O[C@H]2[C@H](O)[C@@H](CO)O[C@@H](O[C@H]3[C@H](O)[C@H](O)[C@@H](Oc4ccc5c(C)cc(=O)oc5c4)O[C@@H]3CO)[C@@H]2NC(C)=O)O[C@H](CO)[C@H](O)[C@@H]1O` [GGM-MU], on DrPOMK, the pKd was 4.52. Moreover, the “radiometric kinase assay, 32P incorporation, C18 cartridge” value on CoPOMK and at HsPOMK was “POMK homologues phosphorylates GGM-MU” each time.
